Laboratory results as given in the supplement of paper PMC10307832.

Tests used:
Experiment in all cases: relative viability (nuclei count vs DMSO), 5 days (fraction); higher = more cells survive
[1] = compound: CC[C@H](Nc1ncnc2[nH]cnc12)c1nc2cccc(F)c2c(=O)n1-c1ccccc1 [Idelalisib] + NC(=O)Nc1cc(-c2cccc(F)c2)sc1C(=O)N[C@H]1CCCNC1 [AZD7762] (partner 0.2 µM)
Procedure, shortened: (§1)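 One day after seeding in 1536-well plates, lung cancer cell lines were dosed by pin tool. Dosing was either single-drug or a fixed anchor-drug dose plus five library-drug doses (not always all listed) in √10 steps. After 5 days, nuclei were stained in one fix-and-stain step and counted on 4× images, and relative viability is the nuclei count of treated wells over that of vehicle wells, given as the median of duplicate plates.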

[2] = compound: CC[C@H](Nc1ncnc2[nH]cnc12)c1nc2cccc(F)c2c(=O)n1-c1ccccc1 [Idelalisib] + CC(=O)c1c(C)c2cnc(Nc3ccc(N4CCNCC4)cn3)nc2n(C2CCCC2)c1=O [Palbociclib] (partner 0.5 µM)
Procedure, shortened: as §1

[3] = compound: CC[C@H](Nc1ncnc2[nH]cnc12)c1nc2cccc(F)c2c(=O)n1-c1ccccc1 [Idelalisib] + CCNC(=O)c1noc(-c2cc(C(C)C)c(O)cc2O)c1-c1ccc(CN2CCOCC2)cc1 [Luminespib] (partner 0.01 µM)
Procedure, shortened: as §1

[4] = compound: Nc1nc2[nH]cc(CCc3ccc(C(=O)N[C@@H](CCC(=O)O)C(=O)O)cc3)c2c(=O)[nH]1 [Pemetrexed] + NC(=O)Nc1cc(-c2cccc(F)c2)sc1C(=O)N[C@H]1CCCNC1 [AZD7762] (partner 0.2 µM)
Procedure, shortened: as §1

Cell Line	relative viability ([1]; first compound 0.04 µM)	relative viability ([1]; first compound 0.1265 µM)	relative viability ([1]; first compound 0.4 µM)	relative viability ([1]; first compound 1.265 µM)	relative viability ([1]; first compound 4 µM)	relative viability ([2]; first compound 0.04 µM)	relative viability ([2]; first compound 0.1265 µM)	relative viability ([2]; first compound 0.4 µM)	relative viability ([2]; first compound 1.265 µM)	relative viability ([2]; first compound 4 µM)	relative viability ([3]; first compound 0.04 µM)	relative viability ([3]; first compound 0.1265 µM)	relative viability ([3]; first compound 0.4 µM)	relative viability ([3]; first compound 1.265 µM)	relative viability ([3]; first compound 4 µM)	relative viability ([4]; first compound 0.002 µM)	relative viability ([4]; first compound 0.006325 µM)	relative viability ([4]; first compound 0.02 µM)	relative viability ([4]; first compound 0.06325 µM)	relative viability ([4]; first compound 0.2 µM)
NCI-H2126	0.961	1.06	0.94	1.02	1	0.364	0.369	0.366	0.327	0.358	0.929	0.893	0.802	0.961	0.929	0.904	0.954	1.06	1.01	0.879
NCI-H2170	0.859	0.873	0.819	0.542	0.737	0.398	0.434	0.384	0.347	0.336	0.548	0.843	0.645	0.61	0.673	0.873	0.916	0.864	0.774	0.357
NCI-H2342	0.626	0.498	0.49	0.484	0.46	0.485	0.495	0.484	0.519	0.473	0.764	0.757	0.629	0.72	0.496	0.354	0.492	0.392	0.524	0.443
NCI-H2347	0.699	0.925	0.69	0.466	0.478	0.48	0.453	0.445	0.42	0.286	0.506	0.581	0.448	0.362	0.532	0.61	0.831	0.914	0.517	0.428
NCI-H2405	0.821	0.779	0.534	0.601	0.705	0.539	0.484	0.494	0.512	0.486	0.777	0.621	0.473	0.52	0.442	0.781	0.833	0.843	0.689	0.629
NCI-H3122	0.949	1.01	1.01	0.785	0.998	0.172	0.195	0.185	0.214	0.203	0.0784	0.0938	0.115	0.0796	0.0833	1.04	0.863	0.966	0.4	0.276
PC-3 [JPC-3]	0.916	0.889	0.806	0.707	0.569	0.557	0.525	0.584	0.489	0.539	0.487	0.65	0.69	0.65	0.497	0.448	0.968	1	0.808	0.861
PC-14	0.313	0.446	0.334	0.265	0.301	0.539	0.511	0.439	0.561	0.415	0.158	0.136	0.127	0.154	0.123	0.297	0.371	0.35	0.218	0.114
